Experimental data reported in patent US11724980B2, “Quinones having high capacity retention for use as electrolytes in aqueous redox flow batteries” (President and Fellows of Harvard College, priority 2018, dated 2023).
Where “and” joins values, the source holds several entries; their conditions need not be identical. Equal values may be shown once.

What was measured:
[1] = Rotating disk electrode study with Levich analysis; format: physicochemical; conditions: 5 mM in 1 M KOH, Levich plot
Method: Glassy carbon was used as the working electrode for all three-electrode CV tests. RDE experiments were conducted using a Pine Instruments Modulated Speed Rotator AFMSRCE equipped with a 5 mm diameter glassy carbon working electrode, a Ag/AgCl reference electrode (BASi, pre-soaked in 3 M NaCl solution), and a graphite counter electrode. The electrode was rotated at a specific speed while the voltage was linearly swept from −0.4 to −0.11 V vs. Ag/AgCl (FIG. 4A). […]. RDE experiments were conducted using a Pine Instruments Modulated Speed Rotator AFMSRCE equipped with a 5 mm diameter glassy carbon working electrode, a Ag/AgCl reference electrode (BASi, pre-soaked in a 3 M KCl solution), and a graphite counter electrode. […]

[2] = Cyclic voltammetry on glassy carbon electrode; format: physicochemical
Method: Glassy carbon was used as the working electrode for all three-electrode CV tests. RDE experiments were conducted using a Pine Instruments Modulated Speed Rotator AFMSRCE equipped with a 5 mm diameter glassy carbon working electrode, a Ag/AgCl reference electrode (BASi, pre-soaked in 3 M NaCl solution), and a graphite counter electrode. The electrode was rotated at a specific speed while the voltage was linearly swept from −0.4 to −0.11 V vs. Ag/AgCl (FIG. 4A). […].
A second CV experiment was performed in which 2,6-DBEAQ was dissolved in pH 14 KOH solution at a concentration of 2 mM. CV measurements were plotted in FIG. 4C. The standard equilibrium potential was determined to be −0.49 V vs. SHE. The separation between the peaks in the CV curves was 42 mV, indicating fairly rapid and reversible electrochemical reactions at the surface of the electrodes.

[3] = Full cell cycling against potassium ferro/ferricyanide posolyte; conditions: from NMR and CV detection limits, full cell cycled 11 days
Method: Full cell cycling (i.e. with a ferro/ferricyanide-based posolyte) was performed with the same flow cell hardware but with a FUMASEP® E-620(K) membrane due to its high conductivity and low permeability of DBEAQ and ferricyanide compared to other membranes. For studies at pH 14, the posolyte volume was 30 mL, and its composition, when assembled, was 0.20 M potassium ferrocyanide, 0.08 M potassium ferricyanide, and 1 M KOH. The negolyte was prepared by dissolving 0.1 M 2,6-DBEAQ in its oxidized form in 1.2 M KOH solution, resulting in 0.1 M 2,6-DBEAQ, 1.2 M K+, and 1 M OH^− electrolyte solution. For studies at pH 12, both electrolytes comprised 10 mM OH^−; the pH was checked both with a pH meter and pH paper and adjusted where necessary. For all full cell studies, the negolyte was assembled in the fully discharged state. Galvanostatic cycling was performed at ±0.1 A/cm^2 at room temperature, with voltage limits of 0.6 and 1.4 V. To obtain the polarization curves, the cell was first charged to the desired state of charge and then polarized via linear sweep voltammetry at a rate of 100 mV/s. […] Electrochemical impedance spectroscopy (EIS) was performed at SOCs between 10 and 100% at open-circuit potential with a 10 mV perturbation and with frequency ranging from 1 to 300,000 Hz. […]

O=C([O-])CCCOc1ccc2c(c1)C(=O)c1ccc(OCCCC(=O)[O-])cc1C2=O.[K+].[K+] [2,6-DBEAQ, 4,4′-((9,10-anthraquinone-2,6-diyl)dioxy)dibutyric acid]
diffusion coefficient for the oxidized form [1]: 1.58×10^−6 cm^2/s | redox potential higher than that of 2,6-DHAQ [2]: ~200 mV | pH above which the potential is pH-independent ([2]; Pourbaix diagram): 11.5 and ~11.5 | Pourbaix diagram slope ([2]; fit to data below pH 12): −35 mV/pH | separation between the peaks in the CV curves ([2]; pH 14 KOH, 2 mM): 42 mV | standard equilibrium potential ([2]; pH 14 KOH, 2 mM): −0.49 V vs. SHE | upper limit of capacity fade rate caused by decomposition and/or membrane crossover [3]: ≤ 0.01 %/day
